≈ marks a conversion by molar mass, not a printed value. Where “and” joins values, the source holds several entries; their conditions need not be identical. Equal values may be shown once. Read-outs that look alike come from different tables or passages of the source.
Legend:
[1] = tested on: Candida albicans biofilms on the maturation phase; assay: Anti-maturation test (XTT), compounds added after 2 h adherence; format: cell-based, Candida albicans ATCC 28367; settings: for IC50: Candida albicans
Procedure: (§1) The anti-maturation and/or anti-biofilm activities of lichen compounds were assessed as previously described ([Millot et al., 2017]). Briefly, C. albicans (ATCC® 28367™) cultures were prepared at a final concentration of 1 × 10^7 cells/ml in yeast nitrogen base medium (Difco, Detroit, MI), supplemented with 50 mM glucose (Sigma, St Louis, MO) (YNB-Glc) from a preculture incubated overnight at 37°C without shaking.
(§2) A total of 200 µl of yeast culture was added to each well of untreated 96-well tissue culture plates. The plates were then incubated at 37°C for 2 h for the anti-maturation test and for 24 h for the anti-biofilm test. After aspiration of spent media and free-floating microorganisms, 250 μl per well of YNB-Glucose and 50 μl lichen compound samples obtained by serial twofold dilutions of each stock solution over the final range 200 to 0.097 μg/ml or 200 to 6.25 μg/ml were added to wells. Controls were also present: untreated yeasts (negative control) and yeasts treated with 2% DMSO. After 24 and/or 48 h of incubation at 37°C followed by aspiration of spent media and free-floating microorganisms, the wells were washed with phosphate-buffered saline (PBS) and observed under an inverted optical microscope (IX51® inverted microscope, Olympus). Biofilms were quantified using a metabolic assay based on the reduction of a tetrazolium salt (XTT) and absorbance measurements at 492 nm (microplate reader LP400; Sanofi Diagnostics Pasteur) ([Cocuaud, 2005]; [Dalleau et al., 2008]). The percent inhibition was determined from the absorbance values compared to the mean absorbance value obtained for untreated wells (100%).
(§3) Concentrations of lichen products inhibiting 50% of biofilms were determined for each tested sample by constructing a dose–response curve and selecting the closest tested concentration value above or equal to 50% inhibition. All anti-maturation and anti-biofilm tests were performed at least in triplicate in at least two separate experiments. The lichen compounds with MMIC50 or/and MBIC50 less than 100 μg/ml were considered as potentially useful.
(§4) Anti-maturation and anti-biofilm tests were performed with C. albicans ATCC® 28367™, as previously described, in 96-well microplates with evernic acid alone, cyclodextrin alone, and evernic acid included in cyclodextrin at over 50 to 1.5 µM final range of evernic acid (serial twofold dilution).

[2] = tested on: Candida albicans preformed 24-h-old biofilm; assay: Anti-biofilm test (XTT) on preformed 24-h-old biofilm; format: cell-based, Candida albicans ATCC 28367
Procedure: as §1, §2, §3, §4

[3] = tested on: C. albicans planktonic yeast; assay: Minimal inhibitory concentration, broth microdilution (CLSI M27-A3 adapted); format: cell-based, Candida albicans ATCC 28367
Procedure: Stock solutions of lichen compounds were prepared in DMSO at 10 mg/ml and were used for all the experiments performed. Their antifungal minimum inhibitory concentrations (MICs) were determined by a broth microdilution method (CLSI reference M27-A3 micromethod adapted protocol) as previously described ([Millot et al., 2017]). Briefly, an inoculum of C. albicans ATCC® 28367™ (American Type Culture Collection) adjusted to 0.5 Mac Farland absorbance was diluted 1:1,000 in RPMI-MOPS. A volume of this yeast culture was added to an equivalent volume of compound solution at several concentrations (100 to 0.048 μg/ml final) in 96-well microtiter plates. Controls as untreated yeasts (negative control), yeasts treated with 2% DMSO and yeasts treated with fluconazole (positive control) were included. After 24 and 48 h incubation at 37°C without shaking, the MICs were determined. All tests were performed in duplicate in at least two separate experiments.

[4] = tested on: C. albicans (ATCC: 90028) biofilm; set-up: method as in Nithyanand et al., 2015b; settings: at 100 µg/ml, added before the adhesion step, ring test; ref Nithyanand et al., 2015b; cited from earlier work
48-h C. albicans biofilm = tested on: 48-h C. albicans biofilm; set-up: method as in Peralta et al., 2016; settings: 4 μg/ml, ref Peralta et al., 2016, cited from earlier work
Candida krusei biofilm = tested on: Candida krusei biofilm; set-up: method as in Kvasnickova et al., 2015; settings: at 300 μg/ml, 24-h biofilm; ref Kvasnickova et al., 2015; cited from earlier work
[5] = tested on: Candida parapsilosis biofilm; set-up: method as in Kvasnickova et al., 2015; settings: at 300 μg/ml, 24-h biofilm; ref Kvasnickova et al., 2015; cited from earlier work
[6] = tested on: 24-h Candida orthopsilosis biofilms; set-up: method as in Pires et al., 2012; settings: 24-h biofilm, vs untreated controls; ref Pires et al., 2012; cited from earlier work
[7] = tested on: 24-h C. parapsilosis biofilms; set-up: method as in Pires et al., 2012; settings: 24-h biofilm, vs untreated controls; ref Pires et al., 2012; cited from earlier work
C. albicans = tested on: C. albicans; set-up: method as in Nithyanand et al., 2015b; settings: at 100 µg/ml; ref Nithyanand et al., 2015b; cited from earlier work
red blood cells = assay: Hemolysis test; format: cell-based; settings: at 100 µg/ml, 1 h
Procedure: Then, 480 µl of each dilution was added to 20 µl of healthy red blood cells (Poitiers University Hospital, Hematology Department) in microtubes (final hematocrit = 4%). Some microtubes were reserved for controls: untreated red blood cells (negative control), cells treated with sterile distilled water (positive control = 100% hemolysis), and cells treated with 1% DMSO. After 1 h of incubation at 37°C, the tubes were centrifuged for 10 s at 14,000 g (A14 centrifuge Jouan) twice, and 200 µl of each supernatant was transferred into 96-well microtiter plates for colorimetric measurements at 450 nm (microplate reader LP400; Sanofi Diagnostics Pasteur) in order to determine the hemolysis percentages of each compound ([Evans et al., 2013]). All tests were performed in duplicate (at least two separate experiments).

[8] = tested on: HeLa human epithelial cervix cells; assay: Growth inhibition of HeLa cells (MTT, 72 h); format: cell-based; settings: for Growth inhibition of HeLa cells (% inhibition): 72 h
Procedure: HeLa human epithelial cervix cells were grown as monolayers at 37°C in a 5% CO2–95% air humidified atmosphere in RPMI supplemented with 10% FBS and […] gentamycin and streptomycin. Cells (2,000 cells/well) were seeded into each well of 96-well plates. […] The final DMSO concentration was less than 1% and tested as a negative control. Cell viability at 72 h was studied using the MTT assay. Then, 5 µl of MTT (10 mg/ml) was added to each well, and the plates were incubated for 4 h. The medium was then removed by aspiration, and 200 µl DMSO was added to each well. Proliferation was determined spectrophotometrically by measuring the absorbance at 540 nm. The percent of growth inhibition (%GI) was calculated as follows: %GI = [(DO (ʎ540 nm) control - DO (ʎ540 nm) treated)/DO (ʎ540 nm) control] * 100. All experiments were performed in duplicate with at least two replicate experiments.

[9] = set-up: method as in Shcherbakova et al. (2021); settings: ref Shcherbakova et al. (2021); cited from earlier work
[10] = 24 h of treatment, read-out: Anti-maturation activity MMIC50
[11] = 48 h of treatment, read-out: Anti-maturation activity MMIC50
[12] = Candida albicans, 24 h, 24 h of treatment, 24-h-old biofilm, read-out: Anti-biofilm activity MBIC50
[13] = Candida albicans, 48 h, 48 h of treatment, 24-h-old biofilm, read-out: Anti-biofilm activity MBIC50

Structure (SMILES) | IC50 [1, 10] | IC50 [1, 11] | IC50 [2, 12] | IC50 [2, 13] | Hemolytic activity (%) (red blood cells) | other results
CC(=O)C1=C(O)C=C2Oc3c(C(C)=O)c(O)c(C)c(O)c3C2(C)C1=O (stereo in doubt) [Compound 11, (+)-usnic acid] |  |  |  |  |  | IC50 ([1]; 24 h, read-out: Anti-maturation activity MMIC50): > 200 µg/mL; IC50 ([1]; 48 h, read-out: Anti-maturation activity MMIC50): > 200 µg/mL; Anti-maturation activity ([1]; at 200 µg/ml): not active; Anti-biofilm activity ([2]; 24-h-old biofilm, in words): no anti-biofilm activity; IC50 ([2]; Candida albicans, 24 h, read-out: Anti-biofilm activity MBIC50): > 200 µg/mL; IC50 ([2]; Candida albicans, 48 h, read-out: Anti-biofilm activity MBIC50): > 200 µg/mL; IC50 ([2]; Candida albicans, read-out: MBIC50): ≥ 100 µg/mL; MIC [3]: > 100 µg/mL; Biofilm inhibition [4]: 65%; Biofilm biomass (48-h C. albicans biofilm; control 18.39): 4.91 μm^3/μm^2; Inhibition of biofilm biomass (48-h C. albicans biofilm): 73.3%; Reduction of biofilm thickness (48-h C. albicans biofilm): 76.8%; Anti-biofilm properties (Candida krusei biofilm): no anti-biofilm properties; Anti-biofilm properties [5]: no anti-biofilm properties; Concentration inducing 80% inhibition of cell growth [6]: 31.2 µg/mL; Concentration inducing 80% inhibition of cell growth [7]: 62.5 µg/mL; Antifungal activity (C. albicans): no antifungal activity
COc1cc(C)c(C(=O)Oc2cc(C)c(C(=O)O)c(O)c2)c(O)c1 [Compound 1, Evernic acid] | 100 µg/mL (≈ 301 µM) | 6.25 µg/mL and 18 µM | 200 µg/mL | ≤ 12.5 µg/mL | 0% | Anti-biofilm activity MBIC50 ([2]; 48 h of treatment, 24-h-old biofilm): 12.5 µg/mL; IC50 ([2]; 48 h of treatment, 24-h-old biofilm, listed as Evernic acid, read-out: Anti-biofilm activity MBIC50): < 12.5 µM; IC50 ([2]; 48 h of treatment, 24-h-old biofilm, listed as evernic acid, read-out: Anti-biofilm activity MBIC50): 37 µM; IC50 ([2]; 48 h of treatment, 24-h-old biofilm, read-out: Anti-biofilm activity MBIC50): 37.5 µM; IC50 ([2]; Candida albicans, 48 h, cyclodextrin experiment, 1.5 to 50 µM, 48 h of contact, read-out: Concentration giving 50% inhibition of the biofilm): 12.5 µM; Hemolytic activity (%) (red blood cells; listed as Evernic acid): no hemolytic activity; Hemolytic activity (%) (red blood cells; listed as evernic acid): no effect at all; Growth inhibition of HeLa cells (% inhibition) ([8]; at 6.125 µg/ml): 22.2 ± 2.8%; Growth inhibition of HeLa cells (% inhibition) ([8]; at 100 µg/ml): more than 70%; Inhibition of HeLa cell growth ([8]; at the lowest tested / minimal active concentration (12.5 or 6.25 µg/ml)): 22%; Predicted cytotoxicity risks [9]: absence of mutagenic, tumorigenic, reproductive, and irritant effects
COc1cc(C)c(C(=O)Oc2cc(C)c(C(=O)O)c(O)c2C)c(O)c1C(=O)O [Compound 2, Squamatic acid] | 50 µg/mL and 128 µM | 12.5 µg/mL and 32 µM | > 200 µg/mL | > 200 µg/mL | 0.4 ± 0.01% | Growth inhibition of HeLa cells (% inhibition) ([8]; at 12.5 µg/ml): 14.8 ± 1.6%
COc1cc(C)c(C(=O)Oc2c(C)c(C(=O)O)c(O)c(C=O)c2O)c(O)c1C(=O)O [Compound 3, thamnolic acid] | 50 µg/mL and 120 µM | 12.5 µg/mL and 30 µM | > 200 µg/mL | > 200 µg/mL | 4.0 ± 0.02% | Growth inhibition of HeLa cells (% inhibition) ([8]; at 12.5 µg/ml): 11.0 ± 0.9%
COC(=O)c1c(C)cc(OC(=O)c2c(C)cc(O)c(C=O)c2O)c(C)c1O [Compound 4, atranorin] | > 200 µg/mL | > 200 µg/mL | > 200 µg/mL | > 200 µg/mL | 0% | IC50 ([1]; incubation time not stated, read-out: MMIC50 (anti-maturation IC50)): ≥ 100 µg/mL; Growth inhibition of HeLa cells (% inhibition) ([8]; at 100 µg/ml): 84.5 ± 6.8%
Cc1cc(OC(=O)c2c(C)cc(OC(=O)c3c(C)cc(O)cc3O)cc2O)cc(O)c1C(=O)O [Compound 5, gyrophoric acid] | > 200 µg/mL | 100 µg/mL (≈ 213 µM) | > 200 µg/mL | > 200 µg/mL | 0.5 ± 0.27% | Growth inhibition of HeLa cells (% inhibition) ([8]; at 100 µg/ml): 70.0 ± 2.3%
Cc1cc(O)c(C=O)c2c1C(=O)Oc1c(C)c(O)c3c(c1O2)C(O)OC3=O (stereo not shown) [Compound 6, norstictic acid] | > 200 µg/mL | > 200 µg/mL | > 200 µg/mL | > 200 µg/mL |  | 
Cc1cc(O)c(C=O)c2c1C(=O)Oc1c(CO)c(O)c3c(c1O2)[C@@H](O)OC3=O [Compound 7, salazinic acid] |  |  | > 200 µg/mL | > 200 µg/mL |  | 
COc1cc(C)c2c(c1C=O)Oc1c(c(C)c(O)c3c1C(O)OC3=O)OC2=O (stereo not shown) [Compound 8, stictic acid] | 200 µg/mL (≈ 518 µM) | 200 µg/mL (≈ 518 µM) | > 200 µg/mL | > 200 µg/mL |  | 
CCCCCC(=O)Cc1cc(O)cc2c1C(=O)Oc1cc(O)c(C(=O)O)c(CCCCC)c1O2 [Compound 9, physodic acid] | > 200 µg/mL | > 200 µg/mL | > 200 µg/mL | > 200 µg/mL |  | 
CCCCCC(=O)Cc1cc(O)c(O)c2c1C(=O)Oc1cc(O)c(C(=O)O)c(CCCCC)c1O2 [Compound 10, 3-hydroxyphysodic acid] | > 200 µg/mL | 100 µg/mL (≈ 206 µM) | > 200 µg/mL | 100 µg/mL |  | 

— article PMC8481799, “Lichen Polyphenolic Compounds for the Eradication of Candida albicans Biofilms” (Frontiers in Cellular and Infection Microbiology, 2021)
